Measured values as given in patent US20200163947A1 (Nortic Holdings Inc., priority 2018, published 2020).
Converted amounts (≈) assume the structure as drawn. Like-named read-outs stand apart in the source and are kept apart here.

Key:
[1] = Single dose parallel plasma and CSF pharmacokinetics and relative bioavailability study in rats; assay type: in vivo; details: both sexes, Wistar, rat, plasma
Description: The pharmacokinetics study was performed in 6 healthy rats (3 males and 3 females). […] Blood samples were collected at 15 minutes, 30 minutes, and at 1, 2, 4, 6, 8, 12 and 24 hours post-dose. CSF samples were collected at 1, 2, 4, and 24 hours post-dose. All samples were analyzed using a validated analytical LC-MS method.

[2] = cited from earlier work
[3] = 25° C.; cited from earlier work

bioavailability ([1]; 0.73 mg, continuous intravenous infusion, read-out: absolute bioavailability): 100%
bioavailability ([1]; rats, 5.5 mg oral solution by oral gavage, Mean, read-out: Absolute Bioavailability (F %)): 22%
Structure (SMILES): COCCOC(=O)C1=C(C)NC(C)=C(C(=O)OC(C)C)C1c1cccc([N+](=O)[O-])c1 (stereo not drawn) [nimodipine, isopropyl 2-methoxyethyl 1,4-dihydro-2,6-dimethyl-4-(m-nitrophenyl)-3,5-pyridinedicarboxylate]
half-life equivalent to earlier elimination rates ([2]; man): 1 to 2 h
concentration in the cerebrospinal fluid ([2]; nimodipine-treated subarachnoid hemorrhage (SAH) patients): ≤ 12.5 ng/mL
Cmax in patients with hepatic cirrhosis versus normal ([2]; oral administration): approximately double
solubility in water [3]: 2.5 µg/mL (≈ 5.97 µM)
